Experimental data: BindingDB's records for doi:10.1124/jpet.102.045674 (Pudue Pharma Discovery Research, 2003)

Legend:
[1] = molecular target: Amine oxidase [flavin-containing] B (Rattus norvegicus, UniProt P19643)
Substance-P receptor = Substance-P receptor (Rattus norvegicus, UniProt P14600)
[2] = molecular target: Nitric oxide synthase, brain (Rattus norvegicus, UniProt P29476)
[3] = molecular target: Sodium-dependent dopamine transporter (Rattus norvegicus, UniProt P23977)
[4] = molecular target: Gamma-aminobutyric acid (GABA) B receptor 1 (Rattus norvegicus, UniProt Q6MFX8)
[5] = molecular target: Alpha-1A adrenergic receptor (Rattus norvegicus, UniProt P43140)
[6] = molecular target: ATP-sensitive inward rectifier potassium channel 1 (Rattus norvegicus, UniProt P35560)
[7] = molecular target: Gamma-aminobutyric acid receptor subunit alpha-1 (Rattus norvegicus, UniProt P62813)
[8] = molecular target: Alpha-2C adrenergic receptor (Rattus norvegicus, UniProt P22086)
[9] = molecular target: Type-1 angiotensin II receptor A (Rattus norvegicus, UniProt P25095)
[10] = molecular target: Type-2 angiotensin II receptor (Rattus norvegicus, UniProt P35351)
B2 bradykinin receptor = B2 bradykinin receptor (Rattus norvegicus, UniProt P25023)
Chain of B2 bradykinin receptor (P25023 whole entry): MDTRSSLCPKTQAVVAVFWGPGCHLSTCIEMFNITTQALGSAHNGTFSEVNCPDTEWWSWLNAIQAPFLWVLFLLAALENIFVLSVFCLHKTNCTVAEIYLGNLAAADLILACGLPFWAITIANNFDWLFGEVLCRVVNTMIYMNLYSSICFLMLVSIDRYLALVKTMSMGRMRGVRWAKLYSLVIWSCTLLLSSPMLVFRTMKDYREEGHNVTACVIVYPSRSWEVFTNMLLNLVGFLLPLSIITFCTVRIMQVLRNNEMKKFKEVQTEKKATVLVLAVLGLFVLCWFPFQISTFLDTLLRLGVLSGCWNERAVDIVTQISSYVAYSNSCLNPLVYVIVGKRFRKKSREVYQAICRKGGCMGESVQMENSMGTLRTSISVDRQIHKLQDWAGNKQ

[11] = molecular target: Choline O-acetyltransferase (Rattus norvegicus, UniProt P32738)
[12] = molecular target: Muscarinic acetylcholine receptor M2 (Rattus norvegicus, UniProt P10980)
[13] = molecular target: Muscarinic acetylcholine receptor M1 (Rattus norvegicus, UniProt P08482)
D(1A) dopamine receptor = D(1A) dopamine receptor (Rattus norvegicus, UniProt P18901)
Endothelin-1 receptor = Endothelin-1 receptor (Rattus norvegicus, UniProt P26684)
Chain of Endothelin-1 receptor (P26684 whole entry): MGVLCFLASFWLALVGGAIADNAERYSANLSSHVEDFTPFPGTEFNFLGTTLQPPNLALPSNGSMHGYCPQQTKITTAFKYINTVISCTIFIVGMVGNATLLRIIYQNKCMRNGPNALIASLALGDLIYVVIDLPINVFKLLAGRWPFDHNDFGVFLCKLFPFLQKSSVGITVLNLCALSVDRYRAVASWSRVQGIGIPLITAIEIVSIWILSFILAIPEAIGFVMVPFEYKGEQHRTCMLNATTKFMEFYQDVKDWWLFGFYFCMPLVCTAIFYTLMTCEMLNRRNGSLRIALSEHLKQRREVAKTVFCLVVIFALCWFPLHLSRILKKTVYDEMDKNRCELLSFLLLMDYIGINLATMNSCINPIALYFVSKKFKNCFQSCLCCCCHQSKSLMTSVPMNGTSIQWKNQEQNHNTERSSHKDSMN

Estrogen receptor = Estrogen receptor (Rattus norvegicus, UniProt P06211)
[14] = molecular target: Glutamate receptor ionotropic, kainate 1 (Rattus norvegicus, UniProt P22756)
[15] = molecular target: Glutamate decarboxylase 2 (Rattus norvegicus, UniProt Q05683)
[16] = molecular target: Glycine receptor subunit alpha-1 (Rattus norvegicus, UniProt P07727)
Chain of Glycine receptor subunit alpha-1 (P07727 whole entry): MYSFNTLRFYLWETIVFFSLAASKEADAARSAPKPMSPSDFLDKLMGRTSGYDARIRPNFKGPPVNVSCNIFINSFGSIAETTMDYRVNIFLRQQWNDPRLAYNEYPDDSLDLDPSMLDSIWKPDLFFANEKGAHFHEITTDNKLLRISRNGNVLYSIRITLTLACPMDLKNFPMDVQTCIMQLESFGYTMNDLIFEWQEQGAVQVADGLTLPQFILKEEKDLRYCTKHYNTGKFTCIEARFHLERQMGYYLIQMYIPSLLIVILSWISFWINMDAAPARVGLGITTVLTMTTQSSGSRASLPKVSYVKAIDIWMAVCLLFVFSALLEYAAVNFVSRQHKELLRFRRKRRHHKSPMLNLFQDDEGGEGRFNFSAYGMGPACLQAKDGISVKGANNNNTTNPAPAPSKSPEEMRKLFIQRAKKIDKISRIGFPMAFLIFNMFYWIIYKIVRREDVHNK

Histamine H2 receptor = Histamine H2 receptor (Rattus norvegicus, UniProt P25102)
Hrh3 protein = Hrh3 protein (Rattus norvegicus, UniProt Q5PPG3)
[17] = molecular target: Leukotriene B4 receptor 1 (Rattus norvegicus, UniProt Q9R0Q2)
[18] = molecular target: Cysteinyl leukotriene receptor 1 (Rattus norvegicus, UniProt Q924T8)
[19] = molecular target: Melatonin receptor type 1A (Rattus norvegicus, UniProt P49218)
Chain of Melatonin receptor type 1A (P49218 whole entry): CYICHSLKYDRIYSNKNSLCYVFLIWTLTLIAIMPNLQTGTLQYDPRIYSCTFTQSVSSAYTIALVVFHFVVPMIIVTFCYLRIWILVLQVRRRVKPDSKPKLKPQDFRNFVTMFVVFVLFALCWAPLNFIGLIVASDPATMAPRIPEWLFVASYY

[20] = molecular target: Nicotinic acetylcholine receptor (Rattus leucopus, UniProt Q62594)
Chain of Nicotinic acetylcholine receptor (Q62594 whole entry): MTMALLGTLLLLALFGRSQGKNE

Substance-K receptor = Substance-K receptor (Rattus norvegicus, UniProt P16610)
[21] = molecular target: Norepinephrine transporter (Rattus norvegicus, UniProt Q9JIA2)
Oxytocin receptor = Oxytocin receptor (Rattus norvegicus, UniProt P70536)
[22] = molecular target: Platelet-activating factor receptor (Rattus norvegicus, UniProt P46002)
Chain of Platelet-activating factor receptor (P46002 whole entry): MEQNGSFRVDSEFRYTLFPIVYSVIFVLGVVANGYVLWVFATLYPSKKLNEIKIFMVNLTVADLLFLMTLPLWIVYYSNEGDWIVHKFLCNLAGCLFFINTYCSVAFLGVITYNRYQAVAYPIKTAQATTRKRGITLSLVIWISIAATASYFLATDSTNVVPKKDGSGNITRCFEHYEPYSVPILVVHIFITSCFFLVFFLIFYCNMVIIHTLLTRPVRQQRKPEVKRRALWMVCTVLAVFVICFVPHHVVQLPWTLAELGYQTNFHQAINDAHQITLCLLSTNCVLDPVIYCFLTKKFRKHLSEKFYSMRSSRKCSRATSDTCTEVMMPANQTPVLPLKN

[23] = molecular target: Small conductance calcium-activated potassium channel protein 1 (Rattus norvegicus, UniProt P70606)
Chain of Small conductance calcium-activated potassium channel protein 1 (P70606 whole entry): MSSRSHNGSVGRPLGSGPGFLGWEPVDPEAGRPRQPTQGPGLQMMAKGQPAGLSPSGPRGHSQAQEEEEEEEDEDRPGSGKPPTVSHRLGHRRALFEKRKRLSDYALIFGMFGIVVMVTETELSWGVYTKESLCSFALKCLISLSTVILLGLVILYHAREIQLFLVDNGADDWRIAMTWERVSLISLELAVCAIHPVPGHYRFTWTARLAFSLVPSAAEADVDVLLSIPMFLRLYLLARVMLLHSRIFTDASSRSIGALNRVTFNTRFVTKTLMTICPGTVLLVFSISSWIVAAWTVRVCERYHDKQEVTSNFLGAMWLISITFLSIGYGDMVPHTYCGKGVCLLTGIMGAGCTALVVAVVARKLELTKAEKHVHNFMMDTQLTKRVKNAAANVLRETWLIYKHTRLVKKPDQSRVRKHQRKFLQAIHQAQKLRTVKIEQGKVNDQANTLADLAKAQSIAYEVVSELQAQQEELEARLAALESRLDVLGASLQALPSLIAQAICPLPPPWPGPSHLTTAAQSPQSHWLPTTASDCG

Thromboxane A2 receptor = Thromboxane A2 receptor (Rattus norvegicus, UniProt P34978)
[24] = molecular target: Sodium channel protein type 1 subunit alpha (Rattus norvegicus, UniProt P04774)
[25] = molecular target: Sodium channel protein type 2 subunit alpha (Rattus norvegicus, UniProt P04775)
Chain of Sodium channel protein type 2 subunit alpha (P04775 whole entry): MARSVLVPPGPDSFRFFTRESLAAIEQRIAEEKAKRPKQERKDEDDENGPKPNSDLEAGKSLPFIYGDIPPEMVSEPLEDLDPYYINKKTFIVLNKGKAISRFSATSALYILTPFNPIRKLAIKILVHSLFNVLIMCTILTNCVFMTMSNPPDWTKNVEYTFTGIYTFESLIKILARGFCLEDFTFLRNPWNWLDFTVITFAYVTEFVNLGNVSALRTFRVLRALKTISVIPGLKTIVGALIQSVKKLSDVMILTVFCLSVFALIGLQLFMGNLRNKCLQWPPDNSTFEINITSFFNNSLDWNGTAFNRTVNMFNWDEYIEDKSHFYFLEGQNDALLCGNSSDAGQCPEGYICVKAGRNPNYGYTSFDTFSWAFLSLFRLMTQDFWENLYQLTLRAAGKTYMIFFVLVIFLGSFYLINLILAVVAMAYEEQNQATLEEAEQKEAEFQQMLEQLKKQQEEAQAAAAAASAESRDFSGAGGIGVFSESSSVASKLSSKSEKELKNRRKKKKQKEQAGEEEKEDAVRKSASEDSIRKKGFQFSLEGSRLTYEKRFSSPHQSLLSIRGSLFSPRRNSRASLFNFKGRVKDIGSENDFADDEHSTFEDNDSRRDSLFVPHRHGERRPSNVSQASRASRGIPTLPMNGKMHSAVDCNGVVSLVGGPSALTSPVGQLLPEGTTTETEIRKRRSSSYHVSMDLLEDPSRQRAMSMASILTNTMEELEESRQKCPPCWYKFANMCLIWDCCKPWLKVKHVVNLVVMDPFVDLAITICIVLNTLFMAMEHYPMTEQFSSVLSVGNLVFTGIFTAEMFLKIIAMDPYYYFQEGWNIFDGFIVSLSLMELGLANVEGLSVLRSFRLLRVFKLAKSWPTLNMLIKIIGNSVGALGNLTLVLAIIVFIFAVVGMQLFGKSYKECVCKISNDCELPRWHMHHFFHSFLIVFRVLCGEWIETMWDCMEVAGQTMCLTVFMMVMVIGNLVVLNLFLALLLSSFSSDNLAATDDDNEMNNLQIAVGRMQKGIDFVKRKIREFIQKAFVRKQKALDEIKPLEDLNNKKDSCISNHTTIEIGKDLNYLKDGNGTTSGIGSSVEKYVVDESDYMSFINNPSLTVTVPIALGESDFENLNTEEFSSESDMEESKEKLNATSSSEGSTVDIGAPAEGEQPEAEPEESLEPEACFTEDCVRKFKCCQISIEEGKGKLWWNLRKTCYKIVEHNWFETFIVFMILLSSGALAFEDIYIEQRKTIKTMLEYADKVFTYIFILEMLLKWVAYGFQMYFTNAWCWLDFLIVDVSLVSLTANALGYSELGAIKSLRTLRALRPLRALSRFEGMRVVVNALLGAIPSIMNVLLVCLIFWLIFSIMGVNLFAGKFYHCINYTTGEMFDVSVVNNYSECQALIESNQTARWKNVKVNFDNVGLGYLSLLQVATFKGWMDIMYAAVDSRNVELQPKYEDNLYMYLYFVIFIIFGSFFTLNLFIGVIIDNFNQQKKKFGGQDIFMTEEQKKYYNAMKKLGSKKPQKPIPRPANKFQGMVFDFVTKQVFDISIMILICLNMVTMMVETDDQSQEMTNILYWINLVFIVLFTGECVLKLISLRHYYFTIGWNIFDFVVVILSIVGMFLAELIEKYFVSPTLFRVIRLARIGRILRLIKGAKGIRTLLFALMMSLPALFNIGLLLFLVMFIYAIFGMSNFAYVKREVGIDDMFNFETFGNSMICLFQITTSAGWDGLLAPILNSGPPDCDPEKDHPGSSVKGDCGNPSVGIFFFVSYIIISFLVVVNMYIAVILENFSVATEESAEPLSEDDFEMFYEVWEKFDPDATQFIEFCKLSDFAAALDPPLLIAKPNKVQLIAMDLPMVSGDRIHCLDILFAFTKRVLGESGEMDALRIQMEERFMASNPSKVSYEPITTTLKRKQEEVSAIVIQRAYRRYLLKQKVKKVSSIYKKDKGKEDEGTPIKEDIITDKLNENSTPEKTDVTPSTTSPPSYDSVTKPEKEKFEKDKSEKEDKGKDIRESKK

[26] = molecular target: Beta-2 adrenergic receptor (Rattus norvegicus, UniProt P10608)
[27] = molecular target: Corticotropin releasing factor receptor (Rattus norvegicus) (UniProt P35353)
[28] = molecular target: Androgen receptor (Rattus norvegicus) (UniProt P15207)
[29] = molecular target: Thyrotropin-releasing hormone receptor (Rattus norvegicus) (UniProt Q01717)
[30] = molecular target: Vasopressin V1a receptor (Rattus norvegicus) (UniProt P30560)

Chain of Sodium-dependent dopamine transporter (P23977 whole entry): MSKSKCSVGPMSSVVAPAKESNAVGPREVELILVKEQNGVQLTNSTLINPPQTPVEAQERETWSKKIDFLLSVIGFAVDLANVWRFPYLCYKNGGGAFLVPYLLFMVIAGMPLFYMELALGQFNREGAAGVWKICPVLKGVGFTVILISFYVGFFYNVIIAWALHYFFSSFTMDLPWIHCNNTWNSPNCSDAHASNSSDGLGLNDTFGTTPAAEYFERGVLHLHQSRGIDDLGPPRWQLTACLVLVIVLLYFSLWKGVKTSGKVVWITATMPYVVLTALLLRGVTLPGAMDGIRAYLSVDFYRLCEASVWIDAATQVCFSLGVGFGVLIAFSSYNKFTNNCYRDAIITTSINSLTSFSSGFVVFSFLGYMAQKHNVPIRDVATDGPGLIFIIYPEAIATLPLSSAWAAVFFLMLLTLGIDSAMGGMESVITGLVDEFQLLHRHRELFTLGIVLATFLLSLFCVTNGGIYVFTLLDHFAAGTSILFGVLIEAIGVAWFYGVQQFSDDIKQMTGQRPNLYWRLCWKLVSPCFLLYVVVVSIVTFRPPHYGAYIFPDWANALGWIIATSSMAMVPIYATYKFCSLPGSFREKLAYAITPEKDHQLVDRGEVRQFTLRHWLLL

Ki [1]: > 10 µM | Ki (Substance-P receptor): > 10 µM | Ki [2]: > 10 µM | Ki [3]: > 10 µM | Ki [4]: > 10 µM | Ki [5]: > 10 µM | Ki [6]: > 10 µM | Ki [7]: > 10 µM | Ki [8]: > 10 µM | Ki [9]: > 10 µM | Ki [10]: > 10 µM | Ki (B2 bradykinin receptor): > 10 µM | Ki [11]: > 10 µM | Ki [12]: > 10 µM | Ki [13]: > 10 µM | Ki (D(1A) dopamine receptor): > 10 µM | Ki (Endothelin-1 receptor): > 10 µM | Ki (Estrogen receptor): > 10 µM | Ki [14]: > 10 µM | Ki [15]: > 10 µM | Ki [16]: > 10 µM | Ki (Histamine H2 receptor): > 10 µM | Ki (Hrh3 protein): > 10 µM | Ki [17]: > 10 µM | Ki [18]: > 10 µM | Ki [19]: > 10 µM | Ki [20]: > 10 µM | Ki (Substance-K receptor): > 10 µM | Ki [21]: > 10 µM | Ki (Oxytocin receptor): > 10 µM | Ki [22]: > 10 µM | Ki [23]: > 10 µM | Ki (Thromboxane A2 receptor): > 10 µM | Ki [24]: > 10 µM | Ki [25]: > 10 µM | Ki [26]: > 10 µM | Ki [27]: > 10 µM | Ki [28]: > 10 µM | Ki [29]: > 10 µM | Ki [30]: > 10 µM
Structure (SMILES): CC(C)(C)c1ccc(NC(=O)N2CCN(c3ncccc3Cl)CC2)cc1 [BCTC]
